Where a SMILES comes first, the peptide text is derived from it.
Key:
[1] = target: Voltage-dependent L-type calcium channel subunit alpha-1C (Rattus norvegicus, UniProt P22002); format: functional
[2] = target: T1, Muscarinic acetylcholine receptor M1 (Homo sapiens, UniProt P11229); format: functional
T1 sequence (P11229 whole entry): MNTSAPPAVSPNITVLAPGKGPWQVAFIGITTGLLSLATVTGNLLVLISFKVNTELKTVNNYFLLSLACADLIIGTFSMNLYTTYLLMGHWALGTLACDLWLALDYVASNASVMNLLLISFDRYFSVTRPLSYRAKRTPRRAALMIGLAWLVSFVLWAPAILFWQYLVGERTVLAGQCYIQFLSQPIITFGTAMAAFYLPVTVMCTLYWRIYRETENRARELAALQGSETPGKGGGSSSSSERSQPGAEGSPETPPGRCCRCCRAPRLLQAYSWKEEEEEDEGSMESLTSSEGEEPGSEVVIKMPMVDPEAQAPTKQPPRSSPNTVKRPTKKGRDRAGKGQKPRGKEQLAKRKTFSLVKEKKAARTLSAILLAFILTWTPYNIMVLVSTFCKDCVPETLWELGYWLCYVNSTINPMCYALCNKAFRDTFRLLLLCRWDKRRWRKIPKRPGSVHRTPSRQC

[3] = target: T2, Muscarinic acetylcholine receptor M2 (Homo sapiens, UniProt P08172); format: functional, cell-based
T2 sequence (P08172 whole entry): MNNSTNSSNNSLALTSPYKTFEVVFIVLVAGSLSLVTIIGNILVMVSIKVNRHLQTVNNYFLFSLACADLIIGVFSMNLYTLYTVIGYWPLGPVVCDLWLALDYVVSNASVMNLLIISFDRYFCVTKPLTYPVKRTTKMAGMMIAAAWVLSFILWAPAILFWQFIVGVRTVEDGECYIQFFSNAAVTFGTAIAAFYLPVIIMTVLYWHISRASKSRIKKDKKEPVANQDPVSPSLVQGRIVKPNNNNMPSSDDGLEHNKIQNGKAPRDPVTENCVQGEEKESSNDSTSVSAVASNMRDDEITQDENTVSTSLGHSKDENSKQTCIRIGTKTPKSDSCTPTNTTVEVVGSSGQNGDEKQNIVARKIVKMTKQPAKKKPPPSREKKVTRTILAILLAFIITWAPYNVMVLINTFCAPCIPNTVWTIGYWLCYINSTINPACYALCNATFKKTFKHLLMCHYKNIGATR

Histamine H1 receptor = Histamine H1 receptor (Homo sapiens, UniProt P35367)
[4] = target: Voltage-gated inwardly rectifying potassium channel KCNH2 (Homo sapiens, UniProt Q12809); format: functional; settings: read-out: AC50
Motilin receptor = Motilin receptor (Homo sapiens, UniProt O43193)
[5] = target: T3, Prostaglandin G/H synthase 1 (Rattus norvegicus, UniProt Q63921); format: functional
T3 sequence (Q63921 whole entry): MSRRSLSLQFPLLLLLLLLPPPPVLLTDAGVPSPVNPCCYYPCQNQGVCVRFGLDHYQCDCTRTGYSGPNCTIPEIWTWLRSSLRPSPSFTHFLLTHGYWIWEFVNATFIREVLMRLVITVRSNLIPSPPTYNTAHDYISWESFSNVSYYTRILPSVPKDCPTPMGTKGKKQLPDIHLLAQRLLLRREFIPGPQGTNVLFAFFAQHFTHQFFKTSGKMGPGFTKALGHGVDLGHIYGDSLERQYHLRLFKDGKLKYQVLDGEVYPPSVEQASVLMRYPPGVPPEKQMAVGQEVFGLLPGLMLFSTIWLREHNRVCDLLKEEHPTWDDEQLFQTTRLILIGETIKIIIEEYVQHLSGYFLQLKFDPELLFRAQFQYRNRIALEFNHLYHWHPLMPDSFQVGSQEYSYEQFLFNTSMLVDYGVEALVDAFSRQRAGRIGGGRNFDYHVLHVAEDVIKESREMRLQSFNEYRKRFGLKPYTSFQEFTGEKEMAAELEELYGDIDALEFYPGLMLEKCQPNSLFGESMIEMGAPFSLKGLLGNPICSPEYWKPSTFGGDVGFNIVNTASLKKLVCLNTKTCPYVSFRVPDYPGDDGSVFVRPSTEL

[6] = target: T4, Equilibrative nucleoside transporter 1 (Homo sapiens, UniProt Q99808)
T4 sequence (Q99808 whole entry): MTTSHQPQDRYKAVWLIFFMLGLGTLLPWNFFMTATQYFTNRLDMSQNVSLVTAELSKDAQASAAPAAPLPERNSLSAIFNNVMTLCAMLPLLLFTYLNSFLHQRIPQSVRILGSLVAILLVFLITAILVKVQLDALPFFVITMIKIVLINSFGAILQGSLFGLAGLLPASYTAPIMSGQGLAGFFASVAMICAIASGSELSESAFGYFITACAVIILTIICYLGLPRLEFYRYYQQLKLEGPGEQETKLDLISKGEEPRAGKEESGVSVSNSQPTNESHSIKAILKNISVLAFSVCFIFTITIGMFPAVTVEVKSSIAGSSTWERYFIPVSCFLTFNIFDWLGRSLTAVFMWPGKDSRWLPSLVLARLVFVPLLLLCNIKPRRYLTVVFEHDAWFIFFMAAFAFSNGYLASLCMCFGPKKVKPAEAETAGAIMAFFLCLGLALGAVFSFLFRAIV

[7] = target: Sodium-dependent dopamine transporter (Homo sapiens, UniProt Q01959)
[8] = target: Sodium-dependent serotonin transporter (Homo sapiens, UniProt P31645)
[9] = target: T5, Alpha-1A adrenergic receptor (Homo sapiens, UniProt P35348); format: functional, cell-based
T5 sequence (P35348 whole entry): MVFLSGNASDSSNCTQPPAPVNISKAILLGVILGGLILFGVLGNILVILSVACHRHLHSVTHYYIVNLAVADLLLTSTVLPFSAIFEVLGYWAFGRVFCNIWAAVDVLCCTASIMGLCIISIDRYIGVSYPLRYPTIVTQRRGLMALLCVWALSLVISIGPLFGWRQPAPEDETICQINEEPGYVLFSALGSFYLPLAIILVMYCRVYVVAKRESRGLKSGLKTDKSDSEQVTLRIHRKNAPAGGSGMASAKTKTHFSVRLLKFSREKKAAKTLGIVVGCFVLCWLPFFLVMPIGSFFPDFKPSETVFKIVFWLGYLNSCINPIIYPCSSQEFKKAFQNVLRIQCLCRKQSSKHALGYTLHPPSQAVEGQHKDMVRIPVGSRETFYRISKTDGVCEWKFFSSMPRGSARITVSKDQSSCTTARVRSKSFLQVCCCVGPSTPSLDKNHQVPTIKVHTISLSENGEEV

Histamine H3 receptor = Histamine H3 receptor (Homo sapiens, UniProt Q9Y5N1)
Also: assay procedure not described here.

Histamine H1 receptor, sequence (P35367 whole entry): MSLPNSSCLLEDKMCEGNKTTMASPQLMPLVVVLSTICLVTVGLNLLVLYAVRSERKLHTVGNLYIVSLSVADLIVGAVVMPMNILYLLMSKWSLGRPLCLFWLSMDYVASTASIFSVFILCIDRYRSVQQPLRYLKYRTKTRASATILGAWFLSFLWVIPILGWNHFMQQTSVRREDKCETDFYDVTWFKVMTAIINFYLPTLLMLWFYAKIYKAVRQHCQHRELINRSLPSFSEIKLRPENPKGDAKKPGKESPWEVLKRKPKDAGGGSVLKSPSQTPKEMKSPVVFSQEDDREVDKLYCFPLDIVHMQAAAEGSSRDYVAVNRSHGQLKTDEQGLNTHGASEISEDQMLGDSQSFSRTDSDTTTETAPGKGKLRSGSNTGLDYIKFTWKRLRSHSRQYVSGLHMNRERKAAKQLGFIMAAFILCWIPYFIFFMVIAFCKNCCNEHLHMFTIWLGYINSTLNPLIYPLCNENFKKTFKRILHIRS
Voltage-dependent L-type calcium channel subunit alpha-1C, sequence (P22002 whole entry): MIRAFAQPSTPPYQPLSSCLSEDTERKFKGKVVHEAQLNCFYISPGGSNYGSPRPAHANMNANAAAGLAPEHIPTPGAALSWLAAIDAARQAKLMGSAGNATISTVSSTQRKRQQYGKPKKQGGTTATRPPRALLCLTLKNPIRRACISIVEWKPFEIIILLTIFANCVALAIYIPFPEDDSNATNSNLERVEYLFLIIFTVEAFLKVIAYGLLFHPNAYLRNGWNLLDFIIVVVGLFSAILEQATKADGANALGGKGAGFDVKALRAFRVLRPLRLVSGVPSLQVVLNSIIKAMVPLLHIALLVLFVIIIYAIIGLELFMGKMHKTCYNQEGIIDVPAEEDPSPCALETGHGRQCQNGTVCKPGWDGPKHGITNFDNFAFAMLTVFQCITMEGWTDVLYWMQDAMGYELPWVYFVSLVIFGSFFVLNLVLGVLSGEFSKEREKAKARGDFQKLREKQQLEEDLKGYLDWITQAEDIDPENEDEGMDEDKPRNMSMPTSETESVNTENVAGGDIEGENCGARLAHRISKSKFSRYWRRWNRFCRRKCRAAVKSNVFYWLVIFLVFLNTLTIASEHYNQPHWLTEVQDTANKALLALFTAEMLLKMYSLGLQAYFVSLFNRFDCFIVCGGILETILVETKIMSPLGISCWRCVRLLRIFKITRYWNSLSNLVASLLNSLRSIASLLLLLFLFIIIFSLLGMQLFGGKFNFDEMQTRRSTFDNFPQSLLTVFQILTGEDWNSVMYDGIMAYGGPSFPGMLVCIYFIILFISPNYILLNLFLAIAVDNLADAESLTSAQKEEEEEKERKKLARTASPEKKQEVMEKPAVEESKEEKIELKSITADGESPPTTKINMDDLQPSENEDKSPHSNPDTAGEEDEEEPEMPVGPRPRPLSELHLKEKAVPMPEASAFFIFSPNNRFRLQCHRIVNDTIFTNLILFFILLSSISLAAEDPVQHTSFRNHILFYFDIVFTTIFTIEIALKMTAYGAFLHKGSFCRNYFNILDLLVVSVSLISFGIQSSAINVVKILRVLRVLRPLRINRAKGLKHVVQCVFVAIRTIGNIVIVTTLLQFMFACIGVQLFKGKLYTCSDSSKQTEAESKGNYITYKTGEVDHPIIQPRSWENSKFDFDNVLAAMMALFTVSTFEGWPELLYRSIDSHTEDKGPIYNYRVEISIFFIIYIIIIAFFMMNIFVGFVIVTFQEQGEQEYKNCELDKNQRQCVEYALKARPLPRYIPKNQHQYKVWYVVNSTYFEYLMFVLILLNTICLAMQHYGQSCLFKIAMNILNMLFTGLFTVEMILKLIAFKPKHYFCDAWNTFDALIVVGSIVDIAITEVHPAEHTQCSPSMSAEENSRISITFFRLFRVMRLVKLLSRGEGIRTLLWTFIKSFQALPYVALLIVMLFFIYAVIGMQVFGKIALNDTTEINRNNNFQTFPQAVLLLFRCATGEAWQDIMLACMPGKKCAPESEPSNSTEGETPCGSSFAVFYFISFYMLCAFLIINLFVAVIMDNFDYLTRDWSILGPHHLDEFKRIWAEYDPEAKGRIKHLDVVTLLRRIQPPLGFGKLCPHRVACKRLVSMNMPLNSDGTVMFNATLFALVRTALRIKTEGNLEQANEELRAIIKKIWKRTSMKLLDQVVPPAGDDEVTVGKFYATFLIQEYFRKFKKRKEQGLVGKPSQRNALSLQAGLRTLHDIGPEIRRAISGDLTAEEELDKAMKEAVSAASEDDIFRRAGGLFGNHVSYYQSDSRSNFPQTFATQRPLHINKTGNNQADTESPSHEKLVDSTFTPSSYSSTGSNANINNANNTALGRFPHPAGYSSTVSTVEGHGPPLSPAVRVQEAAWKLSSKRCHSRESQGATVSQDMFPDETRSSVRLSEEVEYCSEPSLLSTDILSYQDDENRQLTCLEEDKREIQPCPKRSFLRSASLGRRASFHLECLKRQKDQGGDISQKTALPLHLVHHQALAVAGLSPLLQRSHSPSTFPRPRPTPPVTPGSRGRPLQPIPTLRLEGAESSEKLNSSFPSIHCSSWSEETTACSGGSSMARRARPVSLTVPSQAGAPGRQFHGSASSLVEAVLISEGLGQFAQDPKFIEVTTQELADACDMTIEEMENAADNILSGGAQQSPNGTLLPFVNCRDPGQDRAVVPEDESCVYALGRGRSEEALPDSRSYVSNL
Sodium-dependent dopamine transporter, sequence (Q01959 whole entry): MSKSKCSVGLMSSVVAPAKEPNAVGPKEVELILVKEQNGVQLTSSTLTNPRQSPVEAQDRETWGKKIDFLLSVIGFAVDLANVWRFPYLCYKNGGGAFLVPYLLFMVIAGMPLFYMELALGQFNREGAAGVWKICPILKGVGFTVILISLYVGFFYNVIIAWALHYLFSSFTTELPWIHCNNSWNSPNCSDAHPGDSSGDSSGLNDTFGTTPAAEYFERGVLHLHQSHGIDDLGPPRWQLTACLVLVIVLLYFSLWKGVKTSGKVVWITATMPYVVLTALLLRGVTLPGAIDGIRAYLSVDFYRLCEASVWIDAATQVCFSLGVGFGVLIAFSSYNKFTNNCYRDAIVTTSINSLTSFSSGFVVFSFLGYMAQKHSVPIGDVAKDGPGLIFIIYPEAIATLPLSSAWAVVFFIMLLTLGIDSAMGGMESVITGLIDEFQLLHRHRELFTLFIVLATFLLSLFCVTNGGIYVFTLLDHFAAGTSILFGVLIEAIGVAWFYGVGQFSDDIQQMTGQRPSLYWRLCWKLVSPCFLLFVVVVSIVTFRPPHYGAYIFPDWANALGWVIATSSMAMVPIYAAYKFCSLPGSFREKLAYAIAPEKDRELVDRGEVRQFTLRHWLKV
Sodium-dependent serotonin transporter, sequence (P31645 whole entry): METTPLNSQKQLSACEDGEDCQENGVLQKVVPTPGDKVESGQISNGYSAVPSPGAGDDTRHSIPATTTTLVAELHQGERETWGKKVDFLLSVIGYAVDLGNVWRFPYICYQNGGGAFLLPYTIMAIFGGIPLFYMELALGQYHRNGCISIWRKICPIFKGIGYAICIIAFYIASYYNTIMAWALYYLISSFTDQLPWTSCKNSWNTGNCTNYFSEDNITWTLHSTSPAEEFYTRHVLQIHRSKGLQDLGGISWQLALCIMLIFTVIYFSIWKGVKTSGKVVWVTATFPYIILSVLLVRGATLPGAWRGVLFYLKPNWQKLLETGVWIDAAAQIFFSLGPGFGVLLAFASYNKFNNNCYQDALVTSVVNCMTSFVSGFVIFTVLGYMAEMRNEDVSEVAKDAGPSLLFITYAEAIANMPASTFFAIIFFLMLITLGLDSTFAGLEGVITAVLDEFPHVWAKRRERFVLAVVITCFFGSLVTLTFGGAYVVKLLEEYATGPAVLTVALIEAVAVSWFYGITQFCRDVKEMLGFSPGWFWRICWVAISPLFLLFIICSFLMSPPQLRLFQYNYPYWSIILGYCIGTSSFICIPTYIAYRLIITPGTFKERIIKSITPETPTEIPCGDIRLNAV
Motilin receptor, sequence (O43193 whole entry): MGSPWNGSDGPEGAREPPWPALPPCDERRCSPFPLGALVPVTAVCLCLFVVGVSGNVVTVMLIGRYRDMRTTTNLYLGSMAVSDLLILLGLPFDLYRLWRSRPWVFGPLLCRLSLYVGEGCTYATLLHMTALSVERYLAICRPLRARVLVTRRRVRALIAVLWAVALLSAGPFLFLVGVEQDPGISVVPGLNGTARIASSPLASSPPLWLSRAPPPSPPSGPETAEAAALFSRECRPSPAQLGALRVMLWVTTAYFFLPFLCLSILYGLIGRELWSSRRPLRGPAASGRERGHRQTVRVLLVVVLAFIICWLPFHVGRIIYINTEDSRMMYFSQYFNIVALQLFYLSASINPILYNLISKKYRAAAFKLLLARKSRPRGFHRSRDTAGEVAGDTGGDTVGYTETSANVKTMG
Histamine H3 receptor, sequence (Q9Y5N1 whole entry): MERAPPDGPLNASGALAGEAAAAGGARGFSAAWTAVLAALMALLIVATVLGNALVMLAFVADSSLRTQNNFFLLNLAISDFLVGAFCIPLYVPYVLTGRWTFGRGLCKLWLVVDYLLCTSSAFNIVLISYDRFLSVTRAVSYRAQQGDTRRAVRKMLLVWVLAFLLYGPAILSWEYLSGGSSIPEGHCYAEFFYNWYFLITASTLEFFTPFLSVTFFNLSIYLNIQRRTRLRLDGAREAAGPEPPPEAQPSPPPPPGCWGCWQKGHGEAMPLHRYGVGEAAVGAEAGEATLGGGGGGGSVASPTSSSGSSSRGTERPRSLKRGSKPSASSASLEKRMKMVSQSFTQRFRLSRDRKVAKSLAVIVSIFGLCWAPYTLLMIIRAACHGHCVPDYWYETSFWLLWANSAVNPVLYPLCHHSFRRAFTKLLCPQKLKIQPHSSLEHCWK

Compound	AC50 [1]	AC50 [2]	AC50 [3]	AC50 (Histamine H1 receptor)	AC50 [4]	AC50 (Motilin receptor)	AC50 [5]	AC50 [6]	AC50 [7]	AC50 [8]	AC50 [9]	AC50 (Histamine H3 receptor)
O=C(O)c1ccc2nc(-c3cc(Cl)cc(Cl)c3)oc2c1	> 30 µM	> 30 µM	> 30 µM	> 30 µM	> 30 µM	> 30 µM	> 30 µM	> 30 µM	> 30 µM	> 30 µM	> 30 µM	> 30 µM
C[C@H](N)C(=O)N[C@@H](CCC(N)=O)C(=O)O [ALANYL GLUTAMINE] (H-Ala-Gln-OH)	> 30 µM	> 30 µM	> 30 µM	> 30 µM	> 30 µM	> 30 µM	> 30 µM	> 30 µM	> 30 µM	> 30 µM	> 30 µM	> 30 µM
COc1cc(N)cn[n+]1-c1ccccc1 [AMEZINIUM METILSULFATE]	> 30 µM	> 30 µM	> 30 µM	> 30 µM	3.8 µM	> 30 µM	> 30 µM	> 30 µM	5.7 µM	17 µM	25 µM	> 30 µM
CCN(CC)CCCN(c1ccccc1)C1Cc2ccccc2C1 [APRINDINE]	> 10 µM	14.5 µM	> 30 µM	1.18 µM	1 µM	> 30 µM	> 30 µM	> 30 µM	11.6 µM	3.3 µM	14 µM	18 µM
C[C@@H](Cc1ccccc1)N(C)Cc1ccccc1 [BENZPHETAMINE]	> 10 µM	> 10 µM	> 10 µM	> 10 µM	14.5 µM	> 10 µM	> 10 µM	> 30 µM	9.9 µM	0.075 µM	13 µM	> 10 µM
CO/N=C(\C(=O)N[C@@H]1C(=O)N2C(C(=O)O)=C(CSc3nc(C)c(CC(=O)O)s3)CS[C@H]12)c1csc(N)n1 [CEFODIZIME]	> 30 µM	> 30 µM	> 30 µM	> 30 µM	> 30 µM	> 30 µM	27 µM	> 30 µM	> 30 µM	> 30 µM	> 30 µM	> 30 µM
CO/N=C(\C(=O)N[C@@H]1C(=O)N2C(C(=O)[O-])=C(C[n+]3ccc(N)n3CCO)CS[C@H]12)c1csc(N)n1 [CEFOSELIS]	> 30 µM	> 30 µM	> 30 µM	> 30 µM	> 30 µM	> 30 µM	> 30 µM	> 30 µM	> 30 µM	> 30 µM	30 µM	> 30 µM
